This passage reports TGI results from PubChem BioAssay (NCI).

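Where inhibition never reached the appropriate level, the endpoint shown equals the highest concentration tested. Otherwise, values were interpolated linearly from a five-concentration, 48-hour dose response in 96-well plates. TGI is the concentration that stops growth completely.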

Common to all, as to test: NCI tumour cell line growth inhibition, 48 h
Assay [1] concerns SNB-19 CNS.
The subject of assay [2] is OVCAR-8 ovarian.
Assay [3] deals with SF-539 CNS.
Assay [4] relates to NCI-H522 lung.
For assay [5], the system named is MALME-3M melanoma.
Assay [6] has as its system KM12 colon.
Assay [7] concerns LOX IMVI melanoma.
The test system of assay [8] is HCC-2998 colon.
In assay [9] the test system is UO-31 renal.
Assay [10] concerns SK-OV-3 ovarian.
Assay [11] has as its system CCRF-CEM leukemia.
For assay [12], the system named is A498 renal.
Assay [13] deals with UACC-257 melanoma.
Assay [14] concerns SF-295 CNS.
The subject of assay [15] is ACHN renal.
The subject of assay [16] is SR leukemia.
Assay [17] has as its system MCF7 breast.
Assay [18] has as its system T-47D breast.

Turning to `COC1=CC(=O)C2C(C1=O)C(c1ccc(Cl)cc1)[C@@H]2C` (some centres not stated), the TGI in assay [1] is 80.3 µM; in assay [2], 67.4 µM; in assay [3] it was 51.2 µM; in assay [4], 29.8 µM; in assay [5], 46 µM; in assay [6] it was greater than 100 µM. The TGI in [7] was greater than 100 µM; in assay [8] it was greater than 100 µM; in [9], 63.6 µM; in assay [10] it was greater than 100 µM; in assay [11] it was 93.2 µM; in [12], greater than 100 µM. In addition, the TGI was greater than 100 µM in assay [13], greater than 100 µM in assay [14] and 31.9 µM in assay [15].
As for `COC(=O)C(Cc1nc2ccccc2[nH]c1=O)C(=O)C(=O)Nc1ccc(F)cc1` (configuration not stated), the TGI in assay [1] was greater than 100 µM; in assay [2], 38.6 µM; in assay [3], greater than 100 µM; in assay [4], 22.3 µM; in [5], 79.5 µM; in assay [6], greater than 100 µM. The TGI in assay [7], in [8], in assay [9], in [16], in [10] and in assay [11] was greater than 100 µM each time. Also, the TGI in assay [13], in assay [14] and in assay [15] was greater than 100 µM throughout.
On to `C=C(C)CC(C)(c1cc2ccccc2n1C)N1CCOCC1` (configuration not stated), for which the TGI is greater than 100 µM in assay [1]; greater than 100 µM in assay [2]; greater than 100 µM in assay [3]; 60.9 µM in [4]; greater than 100 µM in assay [5]; greater than 100 µM in assay [6]. Also, the TGI in [7], in assay [8], in [9], in [16], in assay [10] and in assay [11] was greater than 100 µM in each case. Besides, the TGI in assay [13], in [14] and in [15] was greater than 100 µM in each case.
As to `Cc1c/c(=N/NC(=O)c2ccncc2)n2nc(N)sc2n1`, the TGI in [1], in [2], in assay [3], in [4], in assay [6] and in [7] was greater than 100 µM each time. Moreover, the TGI in assay [17], in [8], in [9], in assay [16], in assay [10] and in [11] was greater than 100 µM throughout. The TGI in assay [12], in assay [13], in assay [14] and in [15] was greater than 100 µM each time.
With `COc1ccc(Nc2nc3ccc(C(F)(F)F)cc3nc2C(=O)O)cc1`, the TGI in [18] was greater than 100 µM; in assay [2], greater than 100 µM; in [3], 75.9 µM; in assay [5] it was greater than 100 µM; in assay [6] it was 70.9 µM; in assay [7], greater than 100 µM. The TGI was greater than 100 µM in assay [17]; 50 µM in assay [8]; 71.5 µM in assay [10]; 63.5 µM in assay [11]; 57.2 µM in assay [12]; 96.7 µM in assay [13]. This compound displayed a TGI in assay [14] of 89.4 µM.
In the case of `O=c1c2n[nH]nc2nc2n1CC(c1ccccc1)S2` (configuration not stated), the TGI in [1], in [18], in assay [2], in [3], in [5] and in assay [6] was greater than 100 µM throughout. Moreover, the TGI in assay [7], in [17], in [8], in assay [9], in assay [10] and in assay [11] was greater than 100 µM throughout. Further, the TGI in [12], in assay [13], in assay [14] and in assay [15] was greater than 100 µM throughout.
As to `CCOC(=O)c1c2ccc(/C=C/c3ccccc3)ccc-2c(C(=O)OCC)c1N`, the TGI in assay [1], in [3], in assay [4], in [5], in [6] and in [7] was greater than 100 µM each time. Further, the TGI in assay [8] is greater than 100 µM; in [9], greater than 100 µM; in assay [16] it was greater than 100 µM; in assay [10], greater than 100 µM; in [11], greater than 100 µM; in assay [12], 99.8 µM. Besides, the TGI in [13], in assay [14] and in assay [15] was greater than 100 µM each time.
Take `COc1ccc2nc3c([N+](=O)[O-])ccc(NCCN(C)C)c3c(NCCN(C)C)c2c1`: the TGI in [18] was greater than 10 µM; in [2], 3.04 µM; in [5], 7.69 µM; in [6], 2.82 µM; in assay [7], 3.11 µM; in [17] it was 1.84 µM. Also, the TGI was 2.25 µM in assay [8]; 0.634 µM in assay [16]; greater than 10 µM in [10]; 1.78 µM in assay [11]; greater than 10 µM in assay [13]; 3.03 µM in assay [14].
For the compound `CSc1nc2nc(C(O)C(O)C(O)CO)cnc2c(=O)[nH]1` (configuration not stated), the TGI in [1], in [2], in [3], in assay [4], in assay [5] and in assay [6] was greater than 100 µM throughout. Moreover, the TGI in assay [7], in assay [8], in assay [9], in assay [10], in [11] and in [12] was greater than 100 µM throughout. Further, the TGI in assay [13], in assay [14] and in assay [15] was greater than 100 µM throughout.
